Experimental data reported in patent US20230287021A1, “COMPOUNDS, COMPOSITIONS AND METHODS FOR STABILIZING TRANSTHYRETIN AND INHIBITING TRANSTHYRETIN MISFOLDING” (Protego Biopharma, Inc., priority 2020, published 2023).

How the values were obtained:
[1] = In vivo rat PK: tafamidis in plasma, CSF and brain; set-up: species or system Male Sprague-Dawley (SD) rats; details: male, Sprague-Dawley, oral dose of 2 mg/kg of tafamidis, reference
Description: For a compound provided herein to be an effective TTR stabilizer drug to halt and/or prevent the ocular and cerebral TTR amyloid deposition TTR amyloidosis, it has to be able to penetrate into the brain and CSF (surrogate for eye penetration) and deliver a sufficient amount of TTR stabilizer to stop TTR dissociation. A pharmacokinetic study in rat was used to evaluate the compounds. Male Sprague-Dawley (SD) rats (200-220 g weight) were acclimated for at least 2 to 3 days before being placed on study. All animals had access to certified rodent diet and water at libitum. Appropriate amount of the test compound was accurately weighed and mixed with appropriate volume of vehicle (such as DMSO/sterile water for iv dosing or 0.5% methylcellulose homogenous suspension or solution for oral administration or as a solution in a mixture NMP/PEG400/solutol/water) to administer a dose of 2, 5 or 10 mg/kg. For IV dosing the test compound was administered via tail vein or indwelling cannula. For oral dosing, the test compound was administered by oral gavage. Blood and CSF samples were collected at selected timepoints. Blood collection was performed from saphenous vein or tail vein of each animal into polypropylene tubes at each timepoint. All blood samples were transferred into EDTA-K2 tubes and centrifuged for 15 minutes at 4° C. for plasma collection. Plasma samples were kept at -80° C. until LC/MSMS analysis. CSF was collected from cisterna magna at each timepoint and quick frozen over dry ice and kept at -80° C. until LC/MSMS analysis. Brains were harvested immediately after the terminal bleeding (~ 24 hrs post dosing). The blood of the brain was perfused with normal saline. The brain was quickly picked and placed into centrifuge tube. The weight of brain samples was recorded. 4-Fold homogenization solution (MeOH/15 mM PBS (1:2)) was added into the tube according to the weighed samples. The brain was homogenized using a Polytron (3 strokes or more until homogenous, each 30 seconds) on wet ice. The samples were quick frozen over dry ice and kept at -80° C. until LC/MSMS analysis. Using a LC-MSMS method for the quantitative determination of test compound in biological matrixes, amount of test compound and active agent were measured in plasma and CSF at selected timepoints post-dosing and in brain at 24 hrs post dosing. Plasma concentration versus time data was analyzed by non-compartmental approaches using the Phoenix WinNonlin 6.3 software program. As reference, an oral dose of 2 mg/kg of tafamidis gave a CSF to plasma ratio over 24 hrs around 0.01 and a brain to plasma ratio at 24 hrs around 0.02.

[2] = tafamidis-treated FAP patients, cited from earlier work

- Kp ([1]; CSF and plasma, read-out: CSF to plasma ratio over 24 hrs): ~0.01
- Kp at 24 h ([1]; brain and plasma, read-out: brain to plasma ratio at 24 hrs): ~0.02
SMILES: O=C(O)c1ccc2nc(-c3cc(Cl)cc(Cl)c3)oc2c1 [tafamidis]
- tafamidis level in CSF relative to that in plasma ([2]; CSF): 2%
- tafamidis/TTR stoichiometric ratio in plasma ([2]; plasma): 2.4
- tafamidis/TTR stoichiometric ratio in vitreous and CSF ([2]; vitreous and CSF): ≤ 1
- tafamidis level in vitreous relative to that in plasma ([2]; vitreous): 0.5%
